Source: ChEMBL document CHEMBL5316353, “Antitarget, Anti-SARS-CoV-2 Leads, Drugs, and the Drug Discovery-Genetics Alliance Perspective” (J Med Chem, 2023)

Tested on: SARS-CoV-2
Assay: Antiviral activity against SARS Cov-2 pseudovirions assessed as inhibition of viral entry into 293/hACE2 cells at 2 uM relative to control
Format: functional, Severe acute respiratory syndrome coronavirus 2, 293T/ACE2
Set-up: scale not given: the % may be the effect or the level left

Q: `CCc1ccccc1NC(=O)CSC(=O)NNC(=O)[C@H](Cc1c[nH]c2ccccc12)NC(=O)OC(C)(C)C` was tested. Which Activity did it give?
A: ~76%
